Results reported in US7989649B2, “Tumor imaging compounds” (Emory University, priority 2002, dated 2011).

Legend:
[1] = cited from earlier work
[2] = test system: human melanoma transplants; conditions: cited from earlier work
9 L gliosarcoma tumor = conditions: same rodent tumor model, 60 minutes; cited from earlier work
[3] = normal Fischer rats, 60 minutes; cited from earlier work
[4] = healthy Copenhagen rats, 60 minutes
[5] = nude Swiss mice bearing human melanoma transplants, 60 minutes

For `CC(C)(N)C(=O)O` [AIB, α-aminoisobutyric acid], the “mean RC in pancreas and kidneys” value ([1]; rats, within 5-15 minutes post-injection) is listed as “greater than 1.8” and the “mean RC in pancreas and kidneys” value ([2]; mice, within 5-15 minutes post-injection) is listed as “greater than 1.8”.

With `CN1C(C)(C(=O)OC(C)(C)C)COS1(=O)=O` (stereo not drawn) [Compound 14b, 3,4-dimethyl-1,2,3-oxathiazolidine-4-carboxylic acid tert-butyl ester 2,2-dioxide] the melting point was 54 to 55 °C.

In the case of `CC([11CH3])(N)C(=O)O` (stereo not drawn) [[^11C]AIB, [^11C]α-aminoisobutyric acid], the “mean relative concentration (mean RC), brain” value [1, 4] is given as 0.2, the “mean relative concentration (mean RC), kidneys” value [1, 4] is given as 10.3 and the “mean relative concentration (mean RC), pancreas” value [1, 4] is given as 6.0.

For `CC(C)(N)C(=O)O` [[^14C]AIB], the “mean RC, brain” value [2, 5] is given as 0.23, the “mean RC, kidneys” value [2, 5] is given as 3.4 and the “mean RC, pancreas” value [2, 5] is given as 8.6.

For `OC[C@H]1OC(O)[C@H]([18F])[C@@H](O)[C@@H]1O` (stereo partly drawn) [[^18F]FDG, 2-[^18F]fluorodeoxyglucose], the “uptake in normal brain” value (9 L gliosarcoma tumor) is given as 1.30 % ID/g and the “uptake in tumor tissue” value (9 L gliosarcoma tumor) is given as 1.05 % ID/g.

In the case of `N[C@]1(C(=O)O)C[C@@H](F)C1` [trans-[^18F]FACBC, trans-1-amino-3-[^18F]fluorocyclobutyl-1-carboxylic acid], the pancreatic uptake [3] is listed as 3.4 % ID/g.
